Measurements as given in US20220009914A1, “Analogs of Nitrofuran Antibiotics to Combat Resistance” (The Trustees of Indiana University, priority 2020, published 2022).
Where two headings read alike, the source gives them in different places.

Columns and labels:
native rhodanese = target: T1, native rhodanese (Bos taurus, UniProt P00586); assay: native rhodanese enzymatic activity counter-screen; assay type: biochemical
T1 sequence (P00586 1-297): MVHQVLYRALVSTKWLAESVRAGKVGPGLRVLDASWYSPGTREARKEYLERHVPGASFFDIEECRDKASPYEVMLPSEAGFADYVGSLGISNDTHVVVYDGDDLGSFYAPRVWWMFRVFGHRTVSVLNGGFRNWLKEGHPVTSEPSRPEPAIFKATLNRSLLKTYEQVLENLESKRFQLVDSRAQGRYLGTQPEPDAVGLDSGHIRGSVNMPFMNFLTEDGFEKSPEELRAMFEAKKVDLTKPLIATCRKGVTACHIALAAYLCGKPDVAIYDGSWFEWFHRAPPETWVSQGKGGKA
Procedure: Counter-screening compounds for inhibition of native rhodanese enzymatic activity. Reagent Preparations & Assay Protocol: Reagents were identical to those used in the GroEL/ES-dRho refolding assay described above; however, the assay protocol differed in the sequence of compound addition to the wells. Compounds were pin-transferred after 50 minute incubation for the refolding cycle, but prior to the addition of the thiocyanate enzymatic assay stock. Thus, the refolding reactions were allowed to proceed for 50 min at 37° C. in the absence of test compounds, but the enzymatic activity of the refolded rhodanese reporter enzyme was monitored in the presence of test compounds (inhibitor concentration range during the enzymatic reporter reaction is 100 μM to 46 nM—3-fold dilutions). IC50 values for the rhodanese reporter enzyme were determined as described above. Results presented represent the averages of IC50 values obtained from at least four replicates.
All compounds were counter-screened for inhibiting the enzymatic activity of the native Rho reporter enzyme as per our previously reported procedure. Results presented represent the averages of IC50 values obtained from at least four replicates.

[1] = system: Staphylococcus aureus strain Seattle 1945 (ATCC #25923); assay: bacterial proliferation assay, S. aureus; assay type: cell-based; details: Staphylococcus aureus, ATCC25923; read-out: Bacterial Proliferation EC50 S. aureus
Procedure: (§1) All compounds were evaluated for inhibiting the proliferation of E. coli and each of the ESKAPE bacteria. Results presented represent the averages of EC50 values obtained from at least four replicates. Evaluating compounds for inhibition of bacterial cell proliferation.
(§2) Growth Media: E. coli were grown with LB medium and all ESKAPE bacteria were grown in Brain Heart Infusion (BHI) medium (Becton, Dickinson and Company), with all liquid cultures supplemented with 25 mg/L Ca^2+ and 12.5 mg/L Mg^2+ to mimic physiological free concentrations of these cations. A 10 mg/mL Ca^2+ stock solution was prepared by dissolving 1.84 g of CaCl2.2H2O in 50 mL of deionized water, and a 10 mg/mL Mg^2+ stock solution was prepared by dissolving 4.18 g of MgCl2.6H2O in 50 mL deionized water—filter sterilized using 0.2 μm cellulose-acetate filters. 2.5 mL of the sterile 10 mg/mL Ca^2+ stock and 1.25 mL of the sterile 10 mg/mL Mg^2+ stock solutions were added per 1 L of autoclaved LB or BHI media to obtain 25 mg/L Ca^2+ and 12.5 mg/L Mg^2+ ions, respectively.
(§3) General Assay Protocol: Stock bacterial cultures were streaked onto LB or BHI agar plates and grown overnight at 37° C. Fresh aliquots of cation supplemented media were inoculated with single bacterial colonies and the cultures were grown overnight at 37° C. with shaking (240 rpm). The following morning, cultures were diluted 10-fold into fresh media and grown at 37° C. until bacteria had reached mid-log phase growth (OD600˜0.4-0.6). The cultures were then diluted into fresh media to achieve final OD600 readings of 0.017. Aliquots of these diluted cultures (30 μL) were added to clear, flat-bottom 384-well polystyrene plates that were previously stamped with 0.5 μL of test compounds in 20 μL of media (yielding initial OD600=0.01 bacterial cultures). All compounds were tested in dose-response with concentration ranges during the proliferation assays from 100 μM to 46 nM (3-fold dilution series). A second set of baseline control plates were prepared analogously, but without any bacteria added, to correct for possible compound absorbance and/or precipitation. […] Plates were then read at 600 nm using a Molecular Devices SpectraMax Plus384 microplate reader. […] Results presented represent the averages of EC50 values obtained from at least four replicates.
(§4) Evaluating analogs for inhibiting the growth of E. coli and the ESKAPE bacteria. Analogs were initially tested for antibacterial efficacy against representative strains of antibiotic-sensitive E. coli and the ESKAPE bacteria. To determine compound efficacy, bacterial proliferation assays were carried out in liquid media culture supplemented with physiological concentrations of free calcium and magnesium cations. For these assays, bacterial cultures (OD600=0.01) were exposed to test compounds in 8-point, 3-fold dilution series (100 μM to 46 nM concentration range), in 384-well plates. After addition of compounds to cultures, the plates were sealed with Breathe-Easy gas permeable membranes and allowed to grow to mid-log phase (OD600˜0.4-0.6), whereupon final OD600 readings were taken to assess for bacterial growth and inhibition.

[2] = system: Klebsiella pneumoniae strain NCTC 9633 (ATCC #13883); assay: bacterial proliferation assay, K. pneumoniae; assay type: cell-based; details: Klebsiella pneumoniae, read-out: Bacterial Proliferation EC50 K. pneumoniae
Procedure: as §1, §2, §3, §4

[3] = system: Acinetobacter baumannii strain 2208 (ATCC 19606); assay: bacterial proliferation assay, A. baumannii; assay type: cell-based; details: ATCC19606, read-out: Bacterial Proliferation EC50 A. baumannii
Procedure: as §1, §2, §3, §4

[4] = system: NEB 5-alpha Escherichia coli; assay: bacterial proliferation assay, E. coli; assay type: cell-based; details: Escherichia coli, read-out: Bacterial Proliferation EC50 E. coli
Procedure: as §1, §2, §3, §4

[5] = compounds added after refolding, read-out: Native Rho Activity IC50

O=C(N/N=C/c1ccc([N+](=O)[O-])o1)c1ccc(NS(=O)(=O)c2ccc(Br)cc2)cc1 [Compound 27, 4-bromo-N-(4-(2-((5-nitrofuran-2-yl)methylene)hydrazine-1-carbonyl)phenyl)benzenesulfonamide]
IC50 (native rhodanese): 44 µM
EC50 [1]: > 100 µM
EC50 [2]: > 100 µM
EC50 [3]: > 100 µM
EC50 [4]: > 100 µM

O=C(N/N=C/c1ccc(O)c2ncccc12)c1ccccc1Oc1ccccc1 [Compound 10, N′-((8-hydroxyquinolin-5-yl)methylene)-2-phenoxybenzohydrazide]
IC50 (native rhodanese; [5]): 89 µM
EC50 [1]: > 100 µM
EC50 [2]: > 100 µM
EC50 [3]: > 100 µM
EC50 [4]: > 100 µM

O=C(N/N=C/c1ccc([N+](=O)[O-])o1)c1ccccc1 [Compound 18, N′-((5-nitrofuran-2-yl)methylene)benzohydrazide]
IC50 (native rhodanese; [5]): 84 µM
EC50 [1]: 10 µM
EC50 [2]: 36 µM
EC50 [3]: > 100 µM
EC50 [4]: 2.1 µM
